Results as given in PubChem BioAssay (NCI).
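Briefly, cells in 96-well plates were exposed to five compound concentrations for 48 h, and endpoints were estimated by linear interpolation. Abbreviation: GI50, concentration required for 50% inhibition of growth. At the TGI there is no net growth.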

Experiments:
Experiment in all cases: growth of human tumour cells (NCI), 48 h
786-0 renal = system: 786-0 renal
A498 renal = system: A498 renal
A549 NSCLC = system: A549 NSCLC
ACHN renal = system: ACHN renal
BT-549 breast = system: BT-549 breast
CAKI-1 renal = system: CAKI-1 renal
CCRF-CEM leukemia = system: CCRF-CEM leukemia
COLO 205 colon = system: COLO 205 colon
DU-145 prostate = system: DU-145 prostate
HCC-2998 colon = system: HCC-2998 colon
HCT-116 colon = system: HCT-116 colon
HCT-15 colon = system: HCT-15 colon
HOP-62 NSCLC = system: HOP-62 NSCLC
HOP-92 NSCLC = system: HOP-92 NSCLC
HS 578T breast = system: HS 578T breast
HT29 colon = system: HT29 colon
IGROV1 ovarian = system: IGROV1 ovarian
K-562 leukemia = system: K-562 leukemia
KM12 colon = system: KM12 colon
LOX IMVI melanoma = system: LOX IMVI melanoma
M14 melanoma = system: M14 melanoma
MCF7 breast = system: MCF7 breast
MDA-MB-231 breast = system: MDA-MB-231 breast
MDA-MB-435 = system: MDA-MB-435
MOLT-4 leukemia = system: MOLT-4 leukemia
NCI-H226 lung = system: NCI-H226 lung
NCI-H23 lung = system: NCI-H23 lung
NCI-H460 lung = system: NCI-H460 lung
NCI-H522 lung = system: NCI-H522 lung
NCI/ADR-RES ovarian = system: NCI/ADR-RES ovarian
OVCAR-3 ovarian = system: OVCAR-3 ovarian
OVCAR-4 ovarian = system: OVCAR-4 ovarian
OVCAR-5 ovarian = system: OVCAR-5 ovarian
OVCAR-8 ovarian = system: OVCAR-8 ovarian
PC-3 prostate = system: PC-3 prostate
RPMI-8226 leukemia = system: RPMI-8226 leukemia
RXF 393 renal = system: RXF 393 renal
SF-268 CNS = system: SF-268 CNS
SF-539 CNS = system: SF-539 CNS
SK-MEL-2 melanoma = system: SK-MEL-2 melanoma
SK-MEL-28 melanoma = system: SK-MEL-28 melanoma
SK-MEL-5 melanoma = system: SK-MEL-5 melanoma
SK-OV-3 ovarian = system: SK-OV-3 ovarian
SN12C renal = system: SN12C renal
SNB-19 CNS = system: SNB-19 CNS
SNB-75 CNS = system: SNB-75 CNS
SR leukemia = system: SR leukemia
SW-620 colon = system: SW-620 colon
T-47D breast = system: T-47D breast
TK-10 renal = system: TK-10 renal
U251 CNS = system: U251 CNS
UACC-257 melanoma = system: UACC-257 melanoma
UACC-62 melanoma = system: UACC-62 melanoma
UO-31 renal = system: UO-31 renal

O=S(=O)(NCCNc1nccc(-c2c(-c3cccc(O)c3)nc3sccn23)n1)c1ccc(F)cc1
GI50 (786-0 renal): 5.35 µM
TGI (786-0 renal): 41.8 µM
GI50 (A498 renal): 7.58 µM
TGI (A498 renal): 25.2 µM
GI50 (A549 NSCLC): 3.51 µM
TGI (A549 NSCLC): 36.1 µM
GI50 (ACHN renal): 3.53 µM
TGI (ACHN renal): 28.4 µM
GI50 (BT-549 breast): 5.32 µM
TGI (BT-549 breast): 30 µM
GI50 (CAKI-1 renal): 3.69 µM
TGI (CAKI-1 renal): 40.5 µM
GI50 (CCRF-CEM leukemia): 2.8 µM
TGI (CCRF-CEM leukemia): > 100 µM
GI50 (COLO 205 colon): 0.779 µM
TGI (COLO 205 colon): 11.5 µM
GI50 (DU-145 prostate): 8.94 µM
TGI (DU-145 prostate): 38.7 µM
GI50 (HCC-2998 colon): 10.2 µM
TGI (HCC-2998 colon): 25.7 µM
GI50 (HCT-116 colon): 3.26 µM
TGI (HCT-116 colon): 27.1 µM
GI50 (HCT-15 colon): 10.8 µM
TGI (HCT-15 colon): 55.4 µM
GI50 (HOP-62 NSCLC): 13.8 µM
TGI (HOP-62 NSCLC): 56.5 µM
GI50 (HOP-92 NSCLC): 11.5 µM
TGI (HOP-92 NSCLC): 57 µM
GI50 (HS 578T breast): 2.93 µM
TGI (HS 578T breast): 11.7 µM
GI50 (HT29 colon): 2.66 µM
TGI (HT29 colon): 32.4 µM
GI50 (IGROV1 ovarian): 3.53 µM
TGI (IGROV1 ovarian): 18.1 µM
GI50 (K-562 leukemia): 3.88 µM
TGI (K-562 leukemia): > 100 µM
GI50 (KM12 colon): 4.36 µM
TGI (KM12 colon): 16.2 µM
GI50 (LOX IMVI melanoma): 4.11 µM
TGI (LOX IMVI melanoma): 20.1 µM
GI50 (M14 melanoma): 0.568 µM
TGI (M14 melanoma): 16.6 µM
GI50 (MCF7 breast): 2.39 µM
TGI (MCF7 breast): 14.9 µM
GI50 (MDA-MB-231 breast): 4.88 µM
TGI (MDA-MB-231 breast): 44.8 µM
GI50 (MDA-MB-435): 0.939 µM
TGI (MDA-MB-435): 11.6 µM
GI50 (MOLT-4 leukemia): 5.53 µM
TGI (MOLT-4 leukemia): 32 µM
GI50 (NCI-H226 lung): 7.03 µM
TGI (NCI-H226 lung): 45 µM
GI50 (NCI-H23 lung): 11.1 µM
TGI (NCI-H23 lung): 38.2 µM
GI50 (NCI-H460 lung): 4.2 µM
TGI (NCI-H460 lung): 22.8 µM
GI50 (NCI-H522 lung): 6.44 µM
TGI (NCI-H522 lung): 27.1 µM
GI50 (NCI/ADR-RES ovarian): 53 µM
TGI (NCI/ADR-RES ovarian): > 100 µM
GI50 (OVCAR-3 ovarian): 8.53 µM
TGI (OVCAR-3 ovarian): 34.5 µM
GI50 (OVCAR-4 ovarian): 6.5 µM
TGI (OVCAR-4 ovarian): 41.3 µM
GI50 (OVCAR-5 ovarian): 17.8 µM
TGI (OVCAR-5 ovarian): 64.6 µM
GI50 (OVCAR-8 ovarian): 4.61 µM
TGI (OVCAR-8 ovarian): 39.3 µM
GI50 (PC-3 prostate): 5.66 µM
TGI (PC-3 prostate): 63.5 µM
GI50 (RPMI-8226 leukemia): 4.26 µM
TGI (RPMI-8226 leukemia): 22.7 µM
GI50 (RXF 393 renal): 2.44 µM
TGI (RXF 393 renal): 12.5 µM
GI50 (SF-268 CNS): 7.51 µM
TGI (SF-268 CNS): 42.3 µM
GI50 (SF-539 CNS): 5.23 µM
TGI (SF-539 CNS): 24.6 µM
GI50 (SK-MEL-2 melanoma): 4.49 µM
TGI (SK-MEL-2 melanoma): 20.2 µM
GI50 (SK-MEL-28 melanoma): 0.66 µM
TGI (SK-MEL-28 melanoma): 24 µM
GI50 (SK-MEL-5 melanoma): 1.61 µM
TGI (SK-MEL-5 melanoma): 3.98 µM
GI50 (SK-OV-3 ovarian): 5.37 µM
TGI (SK-OV-3 ovarian): 59 µM
GI50 (SN12C renal): 4.26 µM
TGI (SN12C renal): 44.9 µM
GI50 (SNB-19 CNS): 16.5 µM
TGI (SNB-19 CNS): 75.3 µM
GI50 (SNB-75 CNS): 1.2 µM
TGI (SNB-75 CNS): 34.9 µM
GI50 (SR leukemia): 2.65 µM
TGI (SR leukemia): 57.3 µM
GI50 (SW-620 colon): 5.95 µM
TGI (SW-620 colon): 36.9 µM
GI50 (T-47D breast): 6.54 µM
TGI (T-47D breast): 25 µM
GI50 (TK-10 renal): 11.9 µM
TGI (TK-10 renal): 42.1 µM
GI50 (U251 CNS): 7.48 µM
TGI (U251 CNS): 49.3 µM
GI50 (UACC-257 melanoma): 0.568 µM
TGI (UACC-257 melanoma): 16.5 µM
GI50 (UACC-62 melanoma): 0.26 µM
TGI (UACC-62 melanoma): 10.3 µM
GI50 (UO-31 renal): 4.32 µM
TGI (UO-31 renal): 21 µM
